Laboratory results taken from patent publication US8008301B2, “Histamine H3 receptor agents, preparation and therapeutic uses” (Eli Lilly and Company, priority 2004, dated 2011).

Molecular target: T1, H3R membranes (H3R8-expressing HEK293 cell line) (Homo sapiens, UniProt Q9Y5N1)
T1 construct: expressed in transfected cells; membranes
Experiment: [35S] GTPγ[S] binding assay, antagonist activity in the presence of agonist R(-)alpha methylhistamine
Assay type: biochemical
Conditions: inhibition of [35S]GTPγS binding to H3R membranes in presence of agonist
Description: Membranes isolated as described in (Preparation of Histamine Receptor Subtype Membranes) were used in a [35S]GTPχS functional assay. Binding of [35S]GTPχS to membranes indicates agonist activity. Compounds of the invention of Formula I or Formula II were tested for their ability to inhibit binding in the presence of agonists. Alternately, the same transfected cell lines were used for a cAMP assay wherein H3R agonists inhibited forskolin-activated synthesis of cAMP. Compounds of Formula I or Formula II were tested for their ability to permit forskolin-stimulated cAMP synthesis in the presence of agonist.
Antagonist activity of selected compounds was tested for inhibition of [35S] GTP γ [S] binding to H3R membranes in the presence of agonists. Assays were run at room temperature in 20 mM HEPES, 100 mM NaCl, 5 mM MgCl2 and 10 uM GDP at pH 7.4 in a final volume of 200 ul in 96-well Costar plates. Membranes isolated from H3R8-expressing HEK293 cell line (20 ug/well) and GDP were added to each well in a volume of 50 μl assay buffer. Antagonist was then added to the wells in a volume of 50 μl assay buffer and incubated for 15 minutes at room temperature. […] Plates were counted in Wallac Trilux 1450 Microbeta scintillation counter for 1 minute. […]

T1 sequence (Q9Y5N1 whole entry): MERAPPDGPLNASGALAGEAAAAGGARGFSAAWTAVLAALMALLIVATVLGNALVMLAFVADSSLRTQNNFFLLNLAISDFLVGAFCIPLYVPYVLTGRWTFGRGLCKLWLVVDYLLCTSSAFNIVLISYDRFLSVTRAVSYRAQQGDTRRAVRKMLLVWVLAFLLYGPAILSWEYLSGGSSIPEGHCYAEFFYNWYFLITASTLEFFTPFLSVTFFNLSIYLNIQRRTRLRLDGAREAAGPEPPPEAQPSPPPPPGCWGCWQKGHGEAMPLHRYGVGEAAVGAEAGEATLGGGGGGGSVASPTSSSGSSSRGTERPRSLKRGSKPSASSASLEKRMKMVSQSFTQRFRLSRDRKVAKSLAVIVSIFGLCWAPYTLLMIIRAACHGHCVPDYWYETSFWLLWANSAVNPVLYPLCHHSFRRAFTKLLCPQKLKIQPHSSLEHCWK

With `O=C(c1ccc(-c2ccccn2)cc1)N1CCC[C@H]1CN1CCCC1` the Ki was 49 nM.
